Laboratory results published in patent publication US12209096B2, “Compounds and compositions for inducing chondrogenesis” (NOVARTIS AG, priority 2017, dated 2025).
Read-outs that look alike come from different tables or passages of the source.

Test system: NHACs
Test: calcium flux assay
Type: cell-based, human
Settings: for Emax: read-out: (A) % Efficacy
Method in brief: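 FLIPR fluorescence (ex 470–495 nm, em 515–575 nm) was read before and after compound dispense at the indicated dose. Chondrocytes (NHACs), 2000 cells/well, had been dye-loaded 24 h after plating with Calcium 5 in HBSS/HEPES plus 5 mM probenecid, 1 h, room temperature.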

Molecule	EC50 (Homo sapiens) [µM]	Emax (Homo sapiens) [%]	(A) % Efficacy [%]	EC50 [µM]
Cc1cc([C@H]2[C@H]3O[C@H](C[C@H]3F)[C@@H]2C(=O)Nc2cnc(Cl)c(Cl)c2)ccn1 [Example 98, (1R,2R,3S,4R,5R)—N-(5,6-dichloropyridin-3-yl)-5-fluoro-3-(2-methylpyridin-4-yl)-7-oxabicyclo[2.2.1]heptane-2-carboxamide]	21	404	–	–
COc1cc([C@H]2[C@H]3O[C@H]([C@@H]4C[C@@H]43)[C@H]2C(=O)Nc2ccc(Cl)c(Cl)c2)ccn1 [Example 24, (1S,2S,4R,5R,6S,7S)-N-(3,4-dichlorophenyl)-7-(2-methoxypyridin-4-yl)-8-oxatricyclo[3.2.1.0^2,4]octane-6-carboxamide]	11	71	–	–
CN(C)c1ncc([C@H]2[C@H]3O[C@H](C[C@@H]3O)[C@@H]2C(=O)Nc2ccc(Cl)c(Cl)c2)cn1 [Example 144, (1R,2R,3S,4R,5S)—N-(3,4-dichlorophenyl)-3-(2-(dimethylamino)pyrimidin-5-yl)-5-hydroxy-7-oxabicyclo[2.2.1]heptane-2-carboxamide]	30	183	–	–
O=C(Nc1ccc(Cl)c(Cl)c1)[C@H]1[C@H](c2ccnc(F)c2)[C@@H]2O[C@H]1C[C@H]2O [Example 142b, (1S,2S,3R,4S,5R)-N-(3,4-dichlorophenyl)-3-(2-fluoropyridin-4-yl)-5-hydroxy-7-oxabicyclo[2.2.1]heptane-2-carboxamide]	0.79	54	–	–
Cc1cc([C@@H]2[C@@H](C(=O)Nc3cnc(Cl)c(Cl)c3)[C@@H]3O[C@H]2C[C@H]3F)ccn1 [Example 110, (1S,2R,3S,4S,6R)—N-(5,6-dichloropyridin-3-yl)-6-fluoro-3-(2-methylpyridin-4-yl)-7-oxabicyclo[2.2.1]heptane-2-carboxamide]	28	199	–	–
O=C(Nc1cnc(Cl)c(Cl)c1)[C@@H]1[C@@H]2O[C@@H]([C@H]3C[C@H]32)[C@@H]1c1ccnc(F)c1F [Example 32, (1S,2S,4R,5R,6S,7S)—N-(5,6-dichloropyridin-3-yl)-7-(2,3-difluoropyridin-4-yl)-8-oxatricyclo[3.2.1.0^2,4]octane-6-carboxamide]	13	143	–	–
COc1ccc(NC(=O)[C@@H]2[C@@H]3O[C@@H]([C@H]4C[C@H]43)[C@@H]2c2ccc(C)nc2)cn1 [Example 31, (1S,2S,4R,5R,6S,7S)-N-(6-methoxypyridin-3-yl)-7-(6-methylpyridin-3-yl)-8-oxatricyclo[3.2.1.0^2,4]octane-6-carboxamide]	> 50	0	–	–
Cc1ccc([C@H]2[C@H]3O[C@H](C[C@@H]3O)[C@H]2C(=O)Nc2ccc(Cl)c(Cl)c2)cn1 [Example 48, (1R,2S,3S,4R,5S)—N-(3,4-dichlorophenyl)-5-hydroxy-3-(6-methylpyridin-3-yl)-7-oxabicyclo[2.2.1]heptane-2-carboxamide]	22	80	–	–
Cc1cc([C@H]2[C@H]3O[C@H]([C@H](O)[C@@H]3O)[C@@H]2C(=O)Nc2cccc(C(F)(F)F)c2)ccn1 [Example 158, (1S,2R,3S,4R,5S,6R)-5,6-dihydroxy-3-(2-methylpyridin-4-yl)-N-(3-(trifluoromethyl)phenyl)-7-oxabicyclo[2.2.1]heptane-2-carboxamide]	> 50	31	–	–
Cc1cc([C@@H]2[C@@H](C(=O)Nc3ccc(Cl)c(Cl)c3)[C@@H]3O[C@H]2C[C@@H]3F)ccn1 (single isomer, unassigned) [Example 93]	> 50	7	–	–
(1R,2S,3S,4R,5S)-N-(5,6-dichloropyridin-3-yl)-5-hydroxy-3-(pyridin-4-yl)-7-oxabicyclo[2.2.1]heptane-2-carboxamide [Example 10]	–	–	0	> 50
Cc1cc([C@H]2[C@H]3O[C@H]([C@@H]4C[C@@H]43)[C@H]2C(=O)Nc2cccc(C(F)(F)F)c2)ccn1 [Example 26, (1S,2S,4R,5R,6S,7S)-7-(2-methylpyridin-4-yl)-N-[3-(trifluoromethyl)phenyl]-8-oxatricyclo[3.2.1.0^2,4]octane-6-carboxamide]	23	54	–	–
O=C(Nc1ccc(Cl)c(Cl)c1)[C@H]1[C@H]2O[C@H]([C@@H]3C[C@@H]32)[C@H]1c1ccnc(F)c1F (single isomer, unassigned) [Example 30]	10	133	–	–
Nc1ncc([C@H]2[C@H]3O[C@H]([C@@H]4C[C@@H]43)[C@H]2C(=O)Nc2ccc(Cl)c(Cl)c2)cn1 [Example 39, (1S,2S,4R,5R,6S,7S)-7-(2-aminopyrimidin-5-yl)-N-(3,4-dichlorophenyl)-8-oxatricyclo[3.2.1.0^2,4]octane-6-carboxamide]	0.53	40	–	–
COc1ccc(NC(=O)[C@@H]2[C@@H]3O[C@@H]([C@H]4C[C@H]43)[C@@H]2c2ccncc2)cn1 [Example 33, (1S,2S,4R,5R,6S,7S)—N-(6-methoxypyridin-3-yl)-7-(pyridin-4-yl)-8-oxatricyclo[3.2.1.0^2,4]octane-6-carboxamide]	4.6	49	–	–
Cc1ccc([C@H]2[C@H]3O[C@H](C[C@@H]3F)[C@@H]2C(=O)Nc2ccc(Cl)c(Cl)c2)cn1 [Example 115, (1R,2R,3S,4R,5S)—N-(3,4-dichlorophenyl)-5-fluoro-3-(6-methylpyridin-3-yl)-7-oxabicyclo[2.2.1]heptane-2-carboxamide]	33	49	–	–
O=C(Nc1ccc(Cl)c(Cl)c1)[C@H]1[C@@H]2O[C@@H]([C@H]3C[C@H]32)[C@@H]1c1ccnc(F)c1F (racemic) [Example 122, rac-(1S,2S,4R,5R,6R,7S)—N-(3,4-dichlorophenyl)-7-(2,3-difluoropyridin-4-yl)-8-oxatricyclo[3.2.1.0^2,4]octane-6-carboxamide]	5	32	–	–
O=C(Nc1ccc(Cl)c(Cl)c1)[C@@H]1[C@H](c2ccnc(F)c2)[C@@H]2O[C@H]1C[C@H]2O (single isomer, unassigned) [Example 52b]	> 50	1	–	–
COc1ccc(NC(=O)[C@@H]2[C@@H](c3ccnc(C)c3)[C@H]3O[C@@H]2C[C@H]3F)cn1 [Example 97, (1R,2R,3S,4R,5R)-5-fluoro-N-(6-methoxypyridin-3-yl)-3-(2-methylpyridin-4-yl)-7-oxabicyclo[2.2.1]heptane-2-carboxamide]	> 50	2	–	–
O=C(Nc1ccc(Cl)c(Cl)c1)[C@H]1[C@@H](c2cccc(C(F)(F)F)n2)[C@H]2O[C@@H]1C[C@@H]2O [Example 50, (1R,2S,3S,4R,5S)—N-(3,4-dichlorophenyl)-5-hydroxy-3-(6-(trifluoromethyl)pyridin-2-yl)-7-oxabicyclo[2.2.1]heptane-2-carboxamide]	21	308	–	–
Cc1cc([C@H]2[C@H]3O[C@H](C[C@@H]3O)[C@H]2C(=O)Nc2cnc(C)c(Cl)c2)ccn1 [Example 5, (1R,2S,3S,4R,5S)-N-(5-chloro-6-methylpyridin-3-yl)-5-hydroxy-3-(2-methylpyridin-4-yl)-7-oxabicyclo[2.2.1]heptane-2-carboxamide]	> 50	18	–	–
CO[C@H]1C[C@H]2O[C@@H]1[C@H](c1ccnc(C)c1)[C@@H]2C(=O)Nc1ccc(Cl)c(Cl)c1 [Example 63, (1R,2S,3S,4R,5S)—N-(3,4-dichlorophenyl)-5-methoxy-3-(2-methylpyridin-4-yl)-7-oxabicyclo[2.2.1]heptane-2-carboxamide]	> 50	9	–	–
